Test results taken from publication PMC9030223, “MBP-11901 Inhibits Tumor Growth of Hepatocellular Carcinoma through Multitargeted Inhibition of Receptor Tyrosine Kinases” (Cancers, 2022).
Where two headings read alike, the source gives them in different places.

What was measured:
HepG2 xenograft tumor = details: for Tumor growth inhibition rate (%): 42 d (calculated on day 41); for Body weight loss rate (%): day 41
HepG2 cells = experiment: Flow cytometry analysis of cell death (sub-G1); assay type: cell-based, human; details: 50 μM
Protocol: Approximately 1.5 × 10^6 HepG2 cells were suspended in […] PBS, and then […] 95% ethanol was added while vortexing. […] Incubation was continued at 37 °C for 30 min. Cellular DNA was then stained by applying […] propidium iodide (50 μg/mL) for 30 min at 25 °C. Stained cells were analyzed on a FACScan flow cytometer for relative DNA content based on increased red fluorescence.

PC3 = experiment: CCK-8 cell proliferation/cytotoxicity assay; assay type: cell-based; details: Homo sapiens, PC-3; PC3, 24 h
Protocol: (§1) Cell proliferation was detected using the Cell Counting Kit-8 (CCK-8, Cat. CK04-13; Dojindo Laboratories, Kumamoto, Japan) according to the manufacturer’s instruction. To evaluate cytotoxicity, cells were seeded in a 96-well plate (FHC, 1 × 10^4 cells/well; Caki-2, PLC/PFR.5, and MCF 10A, 1 × 10^4 cells/well; AML12, HepG2, Hep3B, and Huh-7 1.2 × 10^4 cells/well; HeLa, HEK-293, A549, and PC-3, 1.5 × 10^4 cells/well; HT-29, MCF-7, C6, and NE-4C, 2 × 10^4 cells/well). After attachment and stabilization of cells for 24 h, the medium was switched with fresh containing various concentrations (0, 1, 5, 10, 25, 50, and 100 μM) of MBP-11901, and cells were incubated for 22 h. Next, CCK-8 solution was added to each well, and cells were incubated for another 2 h. Absorbance was then measured at 450 nm using a microplate reader (SpectraMax i3, Molecular Devices, San Jose, CA, USA). The IC50 and log IC50 values were calculated using GraphPad Prism (version 5.02; GraphPad PRISM software Inc. San Diego, CA, USA). All experiments were independently performed 3 times. The graph of log IC50 values represents average values.

HepG2 = experiment: CCK-8 cell proliferation/cytotoxicity assay; assay type: cell-based; details: Homo sapiens; HepG2, 24 h treatment
Protocol: as §1

[1] = tested on: FHC colon epithelial cells; experiment: CCK-8 cell proliferation/cytotoxicity assay; assay type: cell-based; details: Homo sapiens, FHC normal cells, 24 h
Protocol: as §1

Caki-2 = experiment: CCK-8 cell proliferation/cytotoxicity assay; assay type: cell-based; details: Homo sapiens, CAKI-2, 24 h
Protocol: as §1

C6 = experiment: CCK-8 cell proliferation/cytotoxicity assay; assay type: cell-based; details: Rattus norvegicus, C6, 24 h
Protocol: as §1

HEK-293 = experiment: CCK-8 cell proliferation/cytotoxicity assay; assay type: cell-based; details: Homo sapiens, HEK293; HEK-293 normal cells, 24 h
Protocol: as §1

MCF-7 = experiment: CCK-8 cell proliferation/cytotoxicity assay; assay type: cell-based; details: Homo sapiens, MCF7; MCF-7, 24 h
Protocol: as §1

PLC/PRF5 = experiment: CCK-8 cell proliferation/cytotoxicity assay; assay type: cell-based; details: Homo sapiens, PLC-PRF-5; PLC/PRF5, 24 h treatment
Protocol: as §1

Huh-7 = experiment: CCK-8 cell proliferation/cytotoxicity assay; assay type: cell-based; details: Homo sapiens; Huh-7, 24 h treatment
Protocol: as §1

HeLa = experiment: CCK-8 cell proliferation/cytotoxicity assay; assay type: cell-based; details: Homo sapiens, 24 h
Protocol: as §1

HT-29 = experiment: CCK-8 cell proliferation/cytotoxicity assay; assay type: cell-based; details: Homo sapiens, HT-29, 24 h
Protocol: as §1

[2] = tested on: MCF10a breast epithelial cells; experiment: CCK-8 cell proliferation/cytotoxicity assay; assay type: cell-based; details: Homo sapiens, MCF-10A; MCF10a normal cells, 24 h
Protocol: as §1

NE-4C = experiment: CCK-8 cell proliferation/cytotoxicity assay; assay type: cell-based; details: Mus musculus; NE-4C normal cells, 24 h
Protocol: as §1

Hep3B = experiment: CCK-8 cell proliferation/cytotoxicity assay; assay type: cell-based; details: Homo sapiens, 24 h treatment
Protocol: as §1

[3] = tested on: HepG2-Luc orthotopic liver tumor; experiment: Orthotopic HCC mouse model (HepG2-Luc bioluminescence); assay type: in vivo; details: 82 mg/kg oral once every other day
Protocol: The orthotopic HCC mouse model was established by placing a small piece of tumor-derived HepG2-Luc cells. Mice were randomly distributed into 3 groups upon bioluminescence signal reaching 10^7. The first group served as the saline control. The second and third groups were orally administered MBP-11901 (82 mg/kg) and Nexavar® (164 mg/kg) once every other day for 4 weeks. Tumor progression/regression was recorded once weekly by quantifying the bioluminescence signals. Experimental animals were sacrificed by CO2 inhalation.

[4] = tested on: cleaved PARP and active caspase-3 in HepG2 cells; experiment: Western blot of apoptosis markers; assay type: cell-based, human; details: HepG2, time- and dose-dependent
Protocol: HepG2 cells were seeded in a 60 mm^2 culture dish at a density of 1.5 × 10^6 cells/dish and incubated for 24 h. Cells were treated with MBP-11901 for 24 h. Cells were harvested and protein extraction and Western blotting methods were performed as previously described. Membranes were incubated using the following diluted primary antibodies; PARP (1:1000 dilution), caspase-3 (1:1000 dilution), cleaved caspase-3 (1:1000 dilution), pFLT3 (1:500 dilution), Ras (1:1000 dilution), pc-Raf (1:1000 dilution), pMEK1/2 (1:1000 dilution), pERK1/2 (1:1000 dilution), pAKT (1:1000 dilution), pmTOR (1:1000 dilution), pVEGFR2 (1:1000 dilution), pPDGFR β (1:2000 dilution), and β-actin (1:1000 dilution) in Tris-HCl-based buffer containing 0.2% Tween-20 (T1027, Biosesang, Seongnam, Korea) (TBS-T; pH 7.5). Membranes were then incubated with horseradish-conjugated secondary antibodies (1:5000, Cell Signaling Technologies, Beverly, MA, USA) for 1 h at 25 °C. After washing with TBS-T, immunoreactive bands were visualized using the chemiluminescence western imaging system (Supernova-Q1800TM, Centronics, Daejeon, Korea). Band intensities were measured using ImageJ (Version 1.50i; US National Institutes of Health, Bethesda, MD, USA) and were normalized to β-actin.

Compound: NCC(N)C(=O)Nc1ccc(-c2nc3ccccc3s2)cc1 (stereo not drawn) [MBP-11901]
- Toxic deaths/total (HepG2 xenograft tumor; 82 mg/kg oral 1T/2D, 42 d): 0/6
- Tumor growth inhibition rate (%) (HepG2 xenograft tumor; 82 mg/kg oral 1T/2D): 99.82 ± 0.33%
- Body weight loss rate (%) (HepG2 xenograft tumor; 82 mg/kg oral 1T/2D): 1.85 ± 3.70%
- Toxic deaths/total (HepG2 xenograft tumor; 82 mg/kg oral 1T/3D, 42 d): 0/6
- Tumor growth inhibition rate (%) (HepG2 xenograft tumor; 82 mg/kg oral 1T/3D): 99.51 ± 0.81%
- Body weight loss rate (%) (HepG2 xenograft tumor; 82 mg/kg oral 1T/3D): −0.43 ± 3.76 %
- Toxic deaths/total (HepG2 xenograft tumor; 82 mg/kg oral 1T/4D, 42 d): 0/6
- Tumor growth inhibition rate (%) (HepG2 xenograft tumor; 82 mg/kg oral 1T/4D): 99.48 ± 0.60%
- Body weight loss rate (%) (HepG2 xenograft tumor; 82 mg/kg oral 1T/4D): −4.29 ± 0.59 %
- histological analysis of the liver and kidney (HepG2 xenograft tumor; 42 d): no apparent toxicity
- animals in which tumors had disappeared, out of a total of 6 (HepG2 xenograft tumor; all MBP-11901 groups, after 42 d): 3–4
- GPT values (HepG2 xenograft tumor; serum, MBP-11901 1T/3D and 1T/4D groups): significantly outside the normal range
- SubG1 (HepG2 cells; 8 h): 10.26%
- SubG1 (HepG2 cells; 16 h): 17.39%
- SubG1 (HepG2 cells; 24 h): 34.68%
- IC50 (PC3): 95 ± 0.82 µM
- IC50 (HepG2): 5.16 ± 1.37 µM
- IC50 [1]: 72.7 ± 1.99 µM
- IC50 (Caki-2): 75.7 ± 3.44 µM
- IC50 (C6): 77.8 ± 9.73 µM
- IC50 (HEK-293): 68.2 ± 2.79 µM
- IC50 (MCF-7): 65.9 ± 12.3 µM
- IC50 (PLC/PRF5): 18.6 ± 0.81 µM
- IC50 (Huh-7): 29.4 ± 1.13 µM
- IC50 (HeLa): 41.9 ± 3.38 µM
- IC50 (HT-29): 29.86 ± 0.27 µM
- IC50 [2]: 65.1 ± 1.88 µM
- IC50 (NE-4C): 36.8 ± 3.66 µM
- IC50 (Hep3B): 16.8 ± 0.88 µM
- level of GPT ([3]; 4 weeks): within the normal range
- Ratio of average luminescence intensity to that of the saline group before administration ([3]; 0 w (immediately before administration)): 0.77 ± 0.8 fold
- Ratio of average luminescence intensity to that of the saline group before administration ([3]; 1 w): 2.24 ± 2.9 fold
- Ratio of average luminescence intensity to that of the saline group before administration ([3]; 2 w): 0.83 ± 1.8 fold
- Ratio of average luminescence intensity to that of the saline group before administration ([3]; 3 w): 0.03 ± 0.1 fold
- Ratio of average luminescence intensity to that of the saline group before administration ([3]; 4 w): 0.02 ± 0.0 fold
- levels of cleaved PARP and active caspase-3 [4]: high levels
